Reference: US4552898A, “[3.2.0]Bicycloheptanone oxime ethers with valuable therapeutic properties” (Syntex (U.S.A.) Inc., priority 1983, dated 1985)

Test system: human platelet-rich plasma
Experiment: In vitro human platelet aggregation inhibition (turbidimetric)
Format: cell-based
Settings: ADP inducer
Procedure: Biological activity of the claimed compounds is tested by in vitro human platelet aggregation assay. This assay determines the effectiveness of the compounds in inhibiting the platelet aggregation
Immediately thereafter, the platelets start to secrete large quantities of adenosine diphosphate (ADP) which, in turn activates the other platelets that adhere to the original platelets and eventually form the plug which closes the rupture of the vascular wall. In medical parlance the first process is called collagen-induced primary platelet aggregation, the second process is called ADP-mediated secondary platelet aggregation. This situation can be artificially simulated by natural platelet aggregation inducers such as collagen, ADP, or arachidonic acid to the human platelet-rich plasma.
The blood samples used for the assay are collected into sodium citrate anticoagulant of a final concentration of 0.38%. The platelet-rich plasma is collected after centrifugation at 200 rpm at room temperature. To determine whether the platelet-rich plasma needs dilution to obtain optimal optical density, citrated plasma containing […] platelets per milliliter is pipetted into a Spinco transparent plastic centrifuge tube. The tube is inserted into a Unicam SP 400 absorptiometer and the light at the wave-length of 600 mμ is passed through the tube. The dark current is set at infinity and the optical density of distilled water at zero. The plasma is stirred by a magnetic stirrer. If necessary, platelet-rich plasma is diluted with 0.154M sodium chloride to obtain appropriate optical density
Platelet-rich plasma of appropriate optical density is mixed with appropriate concentration of tested compounds to make up 1 ml of mixture of platelet-rich plasma and tested compound. The concentration of each tested compound varied from 1.0×10^-5 moles to 1.0×10^-9 moles. Each concentration is tested individually by number of repetitions varying from 1 to 6. Each sample mixture consisting of platelet-rich plasma and tested compound is incubated for about 3 to 5 minutes under constant stirring at 500 rpm at 30° C. Thereafter, a predetermined optimal concentration of platelet aggregation inducer is added to each sample mixture. Inducers which are used for testing may be chosen from: […]
Adenosine Diphosphate (ADP) is purchased from Sigma Chemical Company. ADP inducer solution of final concentration of 5 μmol is prepared by dissolving 214 mg of ADP in 1 ml of tris buffer (0.01M at pH 9 at 22° C.). […]
A tube with the mixture of platelet-rich plasma, tested compound and ADP inducer (5 μmol/10 μl) is inserted into the absorptiometer and optical density changes are recorded on chart. Aggregation of the platelets is determined from maximal optical density change. Maximal optical density of a mixture of platelet-rich plasma with inducer, but without the tested compounds, is taken as 100% of platelet aggregation. The maximal optical density of the sample mixture of platelet-rich plasma, ADP inducer and appropriate amount of tested compound is compared to the maximal optical density of the sample without tested compound and inhibitory effectiveness of tested compounds is calculated. For each sample the percentage of the platelet aggregation is calculated and if more than one measurement with the same concentration of the tested compounds are done, the final value is expressed as an average of all measurements with ±S.E. The inhibitory concentration is the effective concentration of tested compound which is able to prevent 50% of the platelet aggregation, where, without the tested compound, the platelet aggregation would have been 100%. PGE1 has an IC50 of 2-8×10^-8 M.

IC50 [nM] | Compound
18.6 | CCCCCC(O)C#CC1CC2C(=NOCC(=O)O)CC2C1O (stereo not drawn) [Compound 1, N--[2-endo-hydroxy-3-exo-(3αS--hydroxyoct-1-ynyl)bicyclo[3.2.0]hept-6-ylidene]aminooxyacetic acid]
11.2 | O=C(O)CON=C1CC2C1CC(/C=C/C(O)C1CCCC1)C2O (stereo not drawn) [Compound 5]
10.5 | O=C(O)CCON=C1CC2C1CC(/C=C/C(O)C1CCCC1)C2O (stereo not drawn) [Compound 16, N--[2-endo-hydroxy-3-exo-(3α-hydroxy-3-cyclopentylprop-1-trans-enyl)bicyclo[3.2.0]hept-6-ylidene]-3-aminooxypropionic acid]
81 | O=C(O)CCON=C1CC2C1CC(/C=C/C(O)C1CCCCC1)C2O (stereo not drawn) [Compound 19, N--[2-endo-hydroxy-3-exo-(3α-hydroxy-3-cyclohexylprop-1-trans-enyl)bicyclo[3.2.0]hept-6-ylidene]-3-aminooxypropionic acid]
70 | CCCCCC(O)C#CC1CC2C(=NOCC(=O)O)CC2C1O (stereo not drawn) [Compound 11, N--[2-endo-hydroxy-3-exo-(3αβS--hydroxyoct-1-ynyl)bicyclo[3.2.0]hept-6-ylidene]aminooxyacetic acid]

Compound | IC50 [nM]
CCCCCC(O)C#CC1CC2C(=NOCCC(=O)O)CC2C1O (stereo not drawn) [Compound 24, N--[2-endo-hydroxy-3-exo-(3αβS--hydroxyoct-1-ynyl)bicyclo[3.2.0]hept-6-ylidene]-3-aminooxypropionic acid] | 43
CCCCCC(O)C#CC1CC2C(=NOCCC(=O)O)CC2C1O (stereo not drawn) [Compound 12, N--[2-endo-hydroxy-3-exo-(3αS--hydroxyoct-1-ynyl)bicyclo[3.2.0]hept-6-ylidene]-3-aminooxypropionic acid] | 31
CCCCCC(O)C#CC1CC2C(=NOCCC(=O)O)CC2C1O (stereo not drawn) [Compound 23, N--[2-endo-hydroxy-3-exo-(3-hydroxyoct-1-ynyl)bicyclo[3.2.0]hept-6-ylidene] -3-aminooxypropionic acid] | 175

Same assay, conditions: Homo sapiens, Platelet, ADP inducer

IC50 [nM] | Compound
21000 | CCCCCC(O)C#CC1C(O)CC2C(=NOCCC(=O)O)CC21 (stereo not drawn) [Compound 26, N--[3-endo-hydroxy-2-exo-(3αβS--hydroxyoct-1-ynyl)bicyclo[3.2.0]hept-6-ylidene]-3-aminooxypropionic acid]
89 | CCCCCC(O)C=CC1CC2C(=NOCC(=O)O)CC2C1O (stereo not drawn) [Compound 2, N--[2-endo-hydroxy-3-exo-(3αS--hydroxyoct-1-trans-enyl)bicyclo[3.2.0]hept-6-ylidene]aminooxyacetic acid]
8.4 | O=C(O)CCON=C1CC2C1CC(C#CC(O)C1CCCCC1)C2O (stereo not drawn) [Compound 18, N--[2-endo-hydroxy-3-exo-(3-hydroxy-3-cyclohexylprop-1-ynyl)bicyclo[3.2.0]hept-6-ylidene]-3-aminooxypropionic acid]
2350 | O=C(O)CCON=C1CC2C1CC(CCC(O)C1CCCCC1)C2O (stereo not drawn) [Compound 20, N--[2-endo-hydroxy-3-exo-(3-hydroxy-3-cyclohexylprop-1-yl)bicyclo[3.2.0]hept-6-ylidene]-3-aminooxypropionic acid]
24 | O=C(O)CON=C1CC2C1CC(C#CC(O)C1CCCCC1)C2O (stereo not drawn) [Compound 7, N--[2-endo-hydroxy-3-exo-(3-hydroxy-3-cyclohexylprop-1-ynyl)bicyclo[3.2.0]hept-6-ylidene]aminooxyacetic acid]
1300 | CCCCCCCC(O)CCC1CC2C(=NOCCC(=O)O)CC2C1O (stereo not drawn) [Compound 22, N--[2-endo-hydroxy-3-exo-(3-hydroxydec-1-yl)bicyclo[3.2.0]hept-6-ylidene]-3-aminooxypropionic acid]
1000 | O=C(O)CON=C1CC2C1CC(CCC(O)C1CCCC1)C2O (stereo not drawn) [Compound 6, N--[2-endo-hydroxy-3-exo-(3-hydroxy-3-cyclopentylprop-1-yl)bicyclo[3.2.0]hept-6-ylidene]aminooxyacetic acid]
1400 | CCCCCC(O)CCC1CC2C(=NOCC(=O)O)CC2C1O (stereo not drawn) [Compound 3, N--[2-endo-hydroxy-3-exo-(3αβS--hydroxyoct-1-yl)bicyclo[3.2.0]hept-6-ylidene]aminooxyacetic acid]
2200 | CCCCCC(O)CCC1CC2C(=NOCCC(=O)O)CC2C1O (stereo not drawn) [Compound 14, N--[2-endo-hydroxy-3-exo-(3αβS--hydroxyoct-1-yl)bicyclo[3.2.0]hept-6-ylidene]-3-aminooxypropionic acid]
6.9 | CCCCCC(O)C=CC1CC2C(=NOCCC(=O)O)CC2C1O (stereo not drawn) [Compound 13, N--[2-endo-hydroxy-3-exo-(3αS--hydroxyoct-1-trans-enyl)bicyclo[3.2.0]hept-6-ylidene]-3-aminooxypropionic acid]
117 | CCCCCCCC(O)C#CC1CC2C(=NOCCC(=O)O)CC2C1O (stereo not drawn) [Compound 21, N--[2-endo-hydroxy-3-exo-(3-hydroxydec-1-ynyl)bicyclo[3.2.0]hept-6-ylidene]-3-aminooxypropionic acid]
1020 | O=C(O)CCON=C1CC2C1CC(CCC(O)C1CCCC1)C2O (stereo not drawn) [Compound 17, N--[2-endo-hydroxy-3-exo-(3-hydroxy-3-cyclopentylprop-1-yl)bicyclo[3.2.0]hept-6-ylidene]-3-aminooxypropionic acid]
88 | O=C(O)CON=C1CC2C1CC(CCC(O)C1CCCCC1)C2O (stereo not drawn) [Compound 8, N--[2-endo-hydroxy-3-exo-(3-hydroxy-3-cyclohexylprop-1-yl)bicyclo[3.2.0]hept-6-ylidene]aminooxyacetic acid]
32 | CCCCCCCC(O)C#CC1CC2C(=NOCC(=O)O)CC2C1O (stereo not drawn) [Compound 9, N--[2-endo-hydroxy-3-exo-(3-hydroxydec-1-ynyl)bicyclo[3.2.0]hept-6-ylidene]aminooxyacetic acid]
12.5 | O=C(O)CON=C1CC2C1CC(C#CC(O)C1CCCC1)C2O (stereo not drawn) [Compound 4, N--[2-endo-hydroxy-3-exo-(3-hydroxy-3-cyclopentylprop-1-ynyl)bicyclo[3.2.0]hept-6-ylidene]aminooxyacetic acid]
420 | CCCCCC(O)C#CC1CC2C(=NOCCCC(=O)O)CC2C1O (stereo not drawn) [Compound 25, N--[2-endo-hydroxy-3-exo-(3αβS--hydroxyoct-1-ynyl)bicyclo[3.2.0]hept-6-ylidene]-4-aminooxybutyric acid]
31 | O=C(O)CCON=C1CC2C1CC(C#CC(O)C1CCCC1)C2O (stereo not drawn) [Compound 15, N--[2-endo-hydroxy-3-exo-(3-hydroxy-3-cyclopentylprop-1-ynyl)bicyclo[3.2.0]hept-6-ylidene]-3-aminooxypropionic acid]
1100 | CCCCCC(O)C#CC1C(O)CC2C(=NOCCCC(=O)O)CC21 (stereo not drawn) [Compound 27, N--[3-endo-hydroxy-2-exo-(3αβS--hydroxyoct-1-ynyl)bicyclo[3.2.0]hept-6-ylidene]-4-aminooxybutyric acid]

Test system: not listed separately
Experiment: Acute toxicity in mice, single intraperitoneal administration
Parameters: species or system Male Sim: (SW)f BR mice
Settings: mouse, in vivo, ip
Procedure: Male Sim: (SW)f BR mice weighing approximately 25 g were randomly assigned to treatment groups of 6 animals, caged together, and were given food and water ad libitum.
The test material was prepared as an aqueous solution or suspension in CMC vehicle (sodium carboxymethyl cellulose, 0.5 g; sodium chloride, 0.9 g; benzyl alcohol, 0.9 ml; Tween 80, 0.4 ml; and water to 100 ml). The test material and the control vehicle were administered once by the indicated route at a dose level of 10 ml per kg body weight.
Following administration of the test material on day 1, animals were observed daily and any deaths were recorded.

Compound | LD50 [mg/kg]
CCCCCC(O)C#CC1CC2C(=NOCCC(=O)O)CC2C1O (stereo not drawn) [Test Material] | > 120
